Results: publication PMC12269308, “Martinostat as a novel HDAC inhibitor to overcome tyrosine kinase inhibitor resistance in chronic myeloid leukemia” (Clinical Epigenetics, 2025)

Legend:
Settings in all cases: read-out: IC50 (nM)^1 / Martinostat
[1] = target: T1, HDAC11 (Homo sapiens, UniProt Q96DB2); experiment: fluorescence HDAC isoenzyme activity assay; format: biochemical
T1 sequence (Q96DB2 1-347): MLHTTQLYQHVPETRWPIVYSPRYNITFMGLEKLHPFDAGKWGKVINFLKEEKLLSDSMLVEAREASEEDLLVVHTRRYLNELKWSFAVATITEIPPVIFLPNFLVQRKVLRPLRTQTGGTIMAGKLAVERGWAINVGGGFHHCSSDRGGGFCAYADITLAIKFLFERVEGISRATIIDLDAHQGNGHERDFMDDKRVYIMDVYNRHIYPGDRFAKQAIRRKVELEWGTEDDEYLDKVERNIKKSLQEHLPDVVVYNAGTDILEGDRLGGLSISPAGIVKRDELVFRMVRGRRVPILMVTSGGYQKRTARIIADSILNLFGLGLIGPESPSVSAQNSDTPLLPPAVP

[2] = target: T2, HDAC6 (Homo sapiens, UniProt Q9UBN7); experiment: fluorescence HDAC isoenzyme activity assay; format: biochemical
T2 sequence (Q9UBN7 1-1215): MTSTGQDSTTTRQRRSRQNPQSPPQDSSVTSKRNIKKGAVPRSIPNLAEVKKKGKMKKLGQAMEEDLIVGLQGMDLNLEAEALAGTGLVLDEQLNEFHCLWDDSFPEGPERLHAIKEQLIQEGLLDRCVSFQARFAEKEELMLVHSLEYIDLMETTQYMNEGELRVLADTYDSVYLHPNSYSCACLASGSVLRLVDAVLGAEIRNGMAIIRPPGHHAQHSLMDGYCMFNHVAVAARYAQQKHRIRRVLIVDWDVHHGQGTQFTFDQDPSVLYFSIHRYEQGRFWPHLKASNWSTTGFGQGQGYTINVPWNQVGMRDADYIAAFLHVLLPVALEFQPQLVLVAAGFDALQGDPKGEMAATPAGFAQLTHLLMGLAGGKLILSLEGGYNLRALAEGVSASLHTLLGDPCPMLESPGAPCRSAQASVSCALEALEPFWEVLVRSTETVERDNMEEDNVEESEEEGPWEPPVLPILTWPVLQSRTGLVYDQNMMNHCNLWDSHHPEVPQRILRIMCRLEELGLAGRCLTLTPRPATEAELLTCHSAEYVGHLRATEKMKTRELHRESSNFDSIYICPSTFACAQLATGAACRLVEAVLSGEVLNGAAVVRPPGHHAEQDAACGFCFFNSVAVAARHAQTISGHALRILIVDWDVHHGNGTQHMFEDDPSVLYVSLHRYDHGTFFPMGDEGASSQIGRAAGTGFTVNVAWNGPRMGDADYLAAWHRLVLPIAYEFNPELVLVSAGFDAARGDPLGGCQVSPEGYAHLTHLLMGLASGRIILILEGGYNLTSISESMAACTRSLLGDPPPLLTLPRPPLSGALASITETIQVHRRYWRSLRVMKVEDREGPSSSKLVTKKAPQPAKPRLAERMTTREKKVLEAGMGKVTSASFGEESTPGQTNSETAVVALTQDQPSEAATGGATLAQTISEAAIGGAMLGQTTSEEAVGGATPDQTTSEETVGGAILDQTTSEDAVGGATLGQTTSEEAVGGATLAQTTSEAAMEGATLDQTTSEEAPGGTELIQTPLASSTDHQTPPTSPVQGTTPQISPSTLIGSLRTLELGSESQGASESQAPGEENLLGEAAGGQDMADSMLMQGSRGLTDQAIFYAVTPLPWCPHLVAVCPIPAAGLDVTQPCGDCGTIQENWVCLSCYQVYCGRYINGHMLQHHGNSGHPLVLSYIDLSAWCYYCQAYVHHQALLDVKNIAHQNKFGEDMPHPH

[3] = target: T3, HDAC10 (Homo sapiens, UniProt Q969S8); experiment: fluorescence HDAC isoenzyme activity assay; format: biochemical
T3 sequence (Q969S8 1-669): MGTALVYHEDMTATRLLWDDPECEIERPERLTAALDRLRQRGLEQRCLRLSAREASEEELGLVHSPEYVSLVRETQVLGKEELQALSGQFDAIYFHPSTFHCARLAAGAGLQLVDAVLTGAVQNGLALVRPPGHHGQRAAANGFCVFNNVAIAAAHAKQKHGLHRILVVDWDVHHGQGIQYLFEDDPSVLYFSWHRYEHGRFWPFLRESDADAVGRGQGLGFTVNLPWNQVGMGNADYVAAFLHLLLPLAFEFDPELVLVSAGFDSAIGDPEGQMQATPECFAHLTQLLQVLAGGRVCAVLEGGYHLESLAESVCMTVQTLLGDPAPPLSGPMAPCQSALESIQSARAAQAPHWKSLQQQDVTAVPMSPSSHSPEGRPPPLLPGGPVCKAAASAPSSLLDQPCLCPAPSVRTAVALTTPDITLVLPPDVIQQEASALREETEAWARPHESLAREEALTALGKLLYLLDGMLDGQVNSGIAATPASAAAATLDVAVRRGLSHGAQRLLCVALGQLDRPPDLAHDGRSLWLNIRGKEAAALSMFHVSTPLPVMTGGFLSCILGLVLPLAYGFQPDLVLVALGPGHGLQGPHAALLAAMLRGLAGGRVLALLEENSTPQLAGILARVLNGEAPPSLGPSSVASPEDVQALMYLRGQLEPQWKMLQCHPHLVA

[4] = target: HDAC2 (Homo sapiens, UniProt Q92769); experiment: fluorescence HDAC isoenzyme activity assay; format: biochemical
[5] = target: HDAC3 (Homo sapiens, UniProt O15379); experiment: fluorescence HDAC isoenzyme activity assay; format: biochemical
[6] = target: HDAC1 (Homo sapiens, UniProt Q13547); experiment: fluorescence HDAC isoenzyme activity assay; format: biochemical
[7] = target: T4, HDAC8 (Homo sapiens, UniProt Q9BY41); experiment: biochemical; set-up: Fluorescence HDAC isoenzyme deacetylase activity assay, excitation 360 nm, emission 460 nm
T4 sequence (Q9BY41 1-377): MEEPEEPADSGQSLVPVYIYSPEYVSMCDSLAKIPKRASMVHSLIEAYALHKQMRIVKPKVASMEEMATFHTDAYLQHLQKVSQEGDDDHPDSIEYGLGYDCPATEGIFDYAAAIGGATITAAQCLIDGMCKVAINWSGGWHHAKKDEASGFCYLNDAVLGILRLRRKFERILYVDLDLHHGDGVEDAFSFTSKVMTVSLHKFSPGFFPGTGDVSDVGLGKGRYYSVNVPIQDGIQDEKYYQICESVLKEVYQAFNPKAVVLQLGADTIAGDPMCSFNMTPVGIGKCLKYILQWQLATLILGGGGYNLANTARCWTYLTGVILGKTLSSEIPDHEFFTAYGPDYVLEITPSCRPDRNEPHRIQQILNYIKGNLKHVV
Method: HDAC activity assays were performed as previously reported. The fluorescence signal was measured using a SpectraMax i3x fluorimeter (Molecular Devices Korea) with SoftMax Pro software at an excitation wavelength of 360 nm and an emission wavelength of 460 nm. […] We conducted total HDAC activity assays to assess the effect of martinostat on the deacetylase activity in vitro.

Chain of HDAC1 (Q13547 whole entry): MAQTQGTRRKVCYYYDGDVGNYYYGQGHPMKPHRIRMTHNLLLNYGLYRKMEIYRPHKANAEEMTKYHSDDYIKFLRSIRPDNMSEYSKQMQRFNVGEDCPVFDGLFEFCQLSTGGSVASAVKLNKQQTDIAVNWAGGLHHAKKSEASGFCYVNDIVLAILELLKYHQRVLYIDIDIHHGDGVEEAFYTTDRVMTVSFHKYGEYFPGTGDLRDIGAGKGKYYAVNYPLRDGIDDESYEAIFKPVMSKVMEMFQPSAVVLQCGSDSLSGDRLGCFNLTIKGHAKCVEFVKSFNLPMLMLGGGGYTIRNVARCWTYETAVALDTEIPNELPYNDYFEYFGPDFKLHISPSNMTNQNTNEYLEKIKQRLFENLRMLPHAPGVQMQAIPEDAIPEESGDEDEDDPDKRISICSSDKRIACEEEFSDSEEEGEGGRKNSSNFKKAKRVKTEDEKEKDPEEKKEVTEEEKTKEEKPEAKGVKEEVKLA
Chain of HDAC3 (O15379 whole entry): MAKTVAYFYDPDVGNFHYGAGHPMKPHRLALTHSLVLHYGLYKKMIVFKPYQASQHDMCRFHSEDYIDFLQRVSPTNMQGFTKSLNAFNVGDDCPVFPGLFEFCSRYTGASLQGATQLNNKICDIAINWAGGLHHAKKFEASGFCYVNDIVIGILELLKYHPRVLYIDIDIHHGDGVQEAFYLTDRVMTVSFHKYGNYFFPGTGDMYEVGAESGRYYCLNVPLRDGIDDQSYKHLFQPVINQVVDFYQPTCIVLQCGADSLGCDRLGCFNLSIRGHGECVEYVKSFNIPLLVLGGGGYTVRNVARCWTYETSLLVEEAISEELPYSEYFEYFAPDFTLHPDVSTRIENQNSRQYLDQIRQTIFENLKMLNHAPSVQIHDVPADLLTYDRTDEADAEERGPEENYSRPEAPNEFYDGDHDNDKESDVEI
Chain of HDAC2 (Q92769 whole entry): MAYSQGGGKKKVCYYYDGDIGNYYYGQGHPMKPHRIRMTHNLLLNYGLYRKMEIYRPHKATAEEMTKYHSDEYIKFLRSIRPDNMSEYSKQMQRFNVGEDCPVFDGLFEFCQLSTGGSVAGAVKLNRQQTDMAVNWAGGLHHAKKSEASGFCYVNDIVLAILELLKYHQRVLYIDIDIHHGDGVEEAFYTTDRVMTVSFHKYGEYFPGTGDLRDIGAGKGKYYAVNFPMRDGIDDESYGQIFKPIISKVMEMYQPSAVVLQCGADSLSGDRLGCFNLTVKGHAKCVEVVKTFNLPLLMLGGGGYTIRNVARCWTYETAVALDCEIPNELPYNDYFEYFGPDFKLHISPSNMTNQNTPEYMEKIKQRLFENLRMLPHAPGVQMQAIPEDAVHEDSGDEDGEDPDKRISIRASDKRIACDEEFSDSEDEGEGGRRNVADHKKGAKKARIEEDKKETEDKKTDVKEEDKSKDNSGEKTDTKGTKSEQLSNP

IC50 [1]: 34 ± 1 nM
IC50 [2]: 70 ± 7 nM
IC50 [3]: 72 ± 7 nM
IC50 [4]: 61 ± 7 nM
IC50 [5]: 79 ± 8 nM
IC50 [6]: 80 ± 3 nM
IC50 [7]: 1650 ± 155 nM
SMILES: CN(Cc1ccc(/C=C/C(=O)NO)cc1)CC12CC3CC(CC(C3)C1)C2 [martinostat]
